How the values were obtained:
Experiment in all cases: relative viability (nuclei count vs DMSO), 5 days (fraction); higher = more cells survive
Alpelisib + Crizotinib = compound: Cc1nc(NC(=O)N2CCC[C@H]2C(N)=O)sc1-c1ccnc(C(C)(C)C(F)(F)F)c1 [Alpelisib] + C[C@@H](Oc1cc(-c2cnn(C3CCNCC3)c2)cnc1N)c1c(Cl)ccc(F)c1Cl [Crizotinib] (partner 1 µM)
Summary of the method: (§1)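 Lung cancer cell lines in 1536-well plates were dosed by pin tool the day after seeding, either with one drug alone or with a fixed anchor-drug dose plus five library-drug doses (not always all listed) in √10 steps. After 5 days, cells were fixed and their nuclei stained in one step (final 0.05% Triton X-100, 1% formaldehyde, 1 ug/ml Hoechst), then counted on 4× images. Relative viability is the nuclei count in treated wells divided by that in vehicle wells. Values are medians of duplicate plates.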

OSI-027 + Vorinostat = compound: COc1cccc2cc(-c3nc([C@H]4CC[C@H](C(=O)O)CC4)n4ncnc(N)c34)[nH]c12 [OSI-027] + O=C(CCCCCCC(=O)Nc1ccccc1)NO [Vorinostat] (partner 1 µM)
Summary of the method: as §1

Alpelisib + Vorinostat = compound: Cc1nc(NC(=O)N2CCC[C@H]2C(N)=O)sc1-c1ccnc(C(C)(C)C(F)(F)F)c1 [Alpelisib] + O=C(CCCCCCC(=O)Nc1ccccc1)NO [Vorinostat] (partner 1 µM)
Summary of the method: as §1

OSI-027 + Luminespib = compound: COc1cccc2cc(-c3nc([C@H]4CC[C@H](C(=O)O)CC4)n4ncnc(N)c34)[nH]c12 [OSI-027] + CCNC(=O)c1noc(-c2cc(C(C)C)c(O)cc2O)c1-c1ccc(CN2CCOCC2)cc1 [Luminespib] (partner 0.01 µM)
Summary of the method: as §1

Cell Line	relative viability (Alpelisib + Crizotinib; first compound 0.04 µM)	relative viability (Alpelisib + Crizotinib; first compound 0.1265 µM)	relative viability (Alpelisib + Crizotinib; first compound 0.4 µM)	relative viability (Alpelisib + Crizotinib; first compound 1.265 µM)	relative viability (Alpelisib + Crizotinib; first compound 4 µM)	relative viability (OSI-027 + Vorinostat; first compound 0.01 µM)	relative viability (OSI-027 + Vorinostat; first compound 0.03162 µM)	relative viability (OSI-027 + Vorinostat; first compound 0.1 µM)	relative viability (OSI-027 + Vorinostat; first compound 0.3162 µM)	relative viability (OSI-027 + Vorinostat; first compound 1 µM)	relative viability (Alpelisib + Vorinostat; first compound 0.04 µM)	relative viability (Alpelisib + Vorinostat; first compound 0.1265 µM)	relative viability (Alpelisib + Vorinostat; first compound 0.4 µM)	relative viability (Alpelisib + Vorinostat; first compound 1.265 µM)	relative viability (Alpelisib + Vorinostat; first compound 4 µM)	relative viability (OSI-027 + Luminespib; first compound 0.01 µM)	relative viability (OSI-027 + Luminespib; first compound 0.03162 µM)	relative viability (OSI-027 + Luminespib; first compound 0.1 µM)	relative viability (OSI-027 + Luminespib; first compound 0.3162 µM)	relative viability (OSI-027 + Luminespib; first compound 1 µM)
NCI-H520	0.823	0.75	0.739	0.463	0.515	0.729	0.712	0.693	0.557	0.368	0.611	0.743	0.629	0.603	0.463	0.258	0.37	0.211	0.168	0.202
NCI-H596	1.06	1.01	0.841	0.616	0.406	0.459	0.685	0.497	0.523	0.416	0.484	0.837	0.629	0.328	0.267	0.96	0.908	0.988	0.851	0.574
NCI-H647	1.03	1.08	1.11	0.933	0.913	0.656	0.468	0.385	0.363	0.36	0.772	0.608	0.613	0.263	0.427	0.153	0.146	0.145	0.149	0.0965
NCI-H650	0.737	0.693	0.88	0.478	0.546	0.495	0.479	0.325	0.303	0.232	0.394	0.314	0.538	0.35	0.325	0.757	0.731	0.749	0.648	0.381
NCI-H661	0.968	0.96	1.07	1.01	0.937	0.806	0.801	0.759	0.717	0.458	0.765	0.795	0.819	0.755	0.728	0.894	0.977	0.846	0.917	0.409
NCI-H727	0.839	0.771	0.891	0.717	0.508	1.08	1.06	1.11	1.23	1.03	1.1	1.2	1.07	1.06	0.848	0.444	0.328	0.381	0.318	0.479
NCI-H838	0.774	0.768	0.932	0.73	0.772	0.65	0.646	0.632	0.55	0.459	0.675	0.697	0.72	0.642	0.606	0.281	0.338	0.336	0.192	0.195
NCI-H1355	1.07	1.11	1.09	0.809	0.824	0.648	0.632	0.622	0.475	0.3	0.626	0.609	0.677	0.529	0.398	0.604	0.582	0.589	0.416	0.406

— the supplement of paper PMC10307832
